# Values quoted from earlier work in US20250082708A1, “HERBAL COMPOSITION FOR USE IN THE TREATMENT OR PREVENTION OF POSTPARTUM DEPRESSION” (CRISTALFARMA S.R.L., priority 2022, published 2025).
# System: women with postpartum depression
# Details: 8 weeks treatment; Amini et al.
substance,measurement,value
vitamin D,"reduction of EPDS questionnaire score with respect to baseline, versus placebo control group",greater reduction
